Results from patent publication US7531663B2, “3-guanidinocarbonyl-1-heteroaryl-indole derivatives, preparation process, their use as medicaments, and pharmaceutical compositions comprising them” (sanofi-aventis Deutschland GmbH, priority 2003, dated 2009).
Counter-ions that a name gives are not always drawn.

How the values were obtained:
NHE1 = target: T1, NHE1 (Homo sapiens, UniProt P19634); assay: NHE inhibition FLIPR test (intracellular pH recovery, BCECF) in transfected LAP-1 cell lines; format: cell-based; conditions: transfected LAP-1 cell line expressing NHE1 subtype, BCECF fluorescence, pHi recovery after acidification
T1 construct: expressed in transfected cells; host or cells: LAP-1 (parental line without endogenous NHE activity), G418-selected transfectants
Method: The NHE inhibitory activities (IC50 values) of the compounds according to the invention were determined by a FLIPR test.
The test is performed in the FLIPR (Fluorescent Imaging Plate Reader) equipped with clear-bottomed and black-walled 96-well microtitration plates.
The growth medium for the transfected cells (Iscove+10% foetal calf serum) also comprises G418 as selection antibiotic to ensure the presence of transfected sequences.
The actual test begins by eliminating the growth medium and adding 100 μl of loading buffer per well (5 μM of BCECF-AM [2′,7′-bis(2-carboxyethyl)-5-(6)-carboxyfluoresceine acetoxymethyl ester] in 20 mM of NH4Cl 115 mM of choline chloride, 1 mM of CaCl2, 5 mM of KCl, 20 mM of HEPES and 5 mM of glucose; pH 7.4 (adjusted with KOH). The cells are then incubated for 20 minutes at 37° C. This incubation results in the loading of the fluorescent dye into the cells, the fluorescence intensity of which depends on the pHi, and on the NH4Cl, which results in a slight basification of the cells.
The precursor BCECF-AM, a non-fluorescent dye, is, as an ester, capable of crossing the membrane. The actual dye, which is incapable of crossing the membrane, is released inside the cell by esterases.
After this 20-minute incubation, the loading buffer, which comprises NH4Cl and free BCECF-AM, is removed by washing three times in the cell washing device (Tecan Columbus), each wash being performed with 400 μl of washing buffer (133.8 mM of choline chloride, 4.7 mM of KCl, 1.25 mM of MgCl2, 1.25 mM of CaCl2, 0.97 mM of K2HPO4, 0.23 mM of KH2PO4, 5 mM of HEPES and 5 mM of glucose; pH 7.4 (adjusted with KOH)). The residual volume remaining in the wells is 90 μl (possibly between 50 and 125 μl). This washing step removes the free BCECF-AM and results in an intracellular acidification (pHi of 6.3-6.4) due to the removal of the external ammonium ions.
As the equilibrium of the intracellular ammonium with the aqueous ammonia and the protons, by removal of the extracellular ammonium and by the subsequent immediate crossing of the aqueous ammonia across the cell membrane, is disrupted, the washing process results in intracellular protons remaining, which is the cause of the intracellular acidification. This acidification can result finally in the death of the cells if it lasts long enough. It is important here for the washing buffer to be free of sodium (<1 mM), otherwise the extracellular sodium ions would result in an immediate increase in the pHi on account of the activity of the cloned NHE isoforms. It is also important for all the buffers used (loading buffer, washing buffer and regeneration buffer) not to contain any HCO3-ions, otherwise the presence of bicarbonate would result in the activation of bicarbonate-dependent systems that disrupt the pHi regulation, which systems are contained in the LAP-1 parental cell line.
The microtiter plates containing acidified cells are then transferred (up to 20 minutes after the acidification) to the FLIPR. In the FLIPR, the intracellular fluorescent dye is activated with light of a wavelength of 488 nm, which is generated by an argon laser, and the measuring parameters (laser power, illumination time and diaphragm of the […] camera integrated into the FLIPR) are chosen such that the average value of the fluorescent signal per well is between 30,000 and 35,000 relative fluorescence units.
The actual measurement in the FLIPR starts with a photograph being taken by the CCD camera every two seconds under software control. After 10 seconds, the increase in the intracellular pH is initiated by adding 90 μl of regeneration buffer (133.8 mM of NaCl, 4.7 mM of KCl, 1.25 mM of MgCl2, 1.25 mM of CaCl2, 0.97 mM of K2HPO4, 0.23 mM of KH2PO4, 10 mM of HEPES and 5 mM of glucose; pH 7.4 (adjusted with NaOH)) using a 96-well pipette device incorporated into the FLIPR. Some wells, to which is added pure regeneration buffer, serve as positive controls (100% NHE activity). […]

T1 sequence (P19634 whole entry): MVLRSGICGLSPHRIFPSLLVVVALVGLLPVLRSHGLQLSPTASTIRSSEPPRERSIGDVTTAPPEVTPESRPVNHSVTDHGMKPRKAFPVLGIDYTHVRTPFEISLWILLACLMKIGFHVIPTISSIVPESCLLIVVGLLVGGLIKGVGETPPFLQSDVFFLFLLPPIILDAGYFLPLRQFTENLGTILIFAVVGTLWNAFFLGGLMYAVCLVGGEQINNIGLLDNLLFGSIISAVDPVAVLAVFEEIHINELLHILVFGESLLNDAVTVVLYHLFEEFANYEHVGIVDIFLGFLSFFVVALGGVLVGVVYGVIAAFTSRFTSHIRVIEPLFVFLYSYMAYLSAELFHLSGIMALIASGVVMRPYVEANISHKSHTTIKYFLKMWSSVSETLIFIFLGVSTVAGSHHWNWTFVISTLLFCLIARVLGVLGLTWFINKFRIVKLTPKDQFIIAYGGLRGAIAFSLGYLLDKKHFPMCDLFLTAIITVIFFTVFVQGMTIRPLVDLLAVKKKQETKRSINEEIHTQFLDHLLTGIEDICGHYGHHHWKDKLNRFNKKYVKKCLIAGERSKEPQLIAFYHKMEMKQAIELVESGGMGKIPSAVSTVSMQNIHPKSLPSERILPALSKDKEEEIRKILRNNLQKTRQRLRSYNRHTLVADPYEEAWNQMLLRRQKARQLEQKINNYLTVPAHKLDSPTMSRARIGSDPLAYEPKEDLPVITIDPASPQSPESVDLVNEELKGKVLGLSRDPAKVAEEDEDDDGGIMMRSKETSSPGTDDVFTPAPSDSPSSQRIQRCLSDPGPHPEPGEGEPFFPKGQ

Row | Structure (SMILES) | IC50 (NHE1) [nM] | melting point [°C]
1 | COc1ccc2c(C(=O)NC(=N)N)cn(-c3ccnc4ccccc34)c2c1 [Example 11, 3-Guanidinocarbonyl-6-methoxy-1-(quinol-4-yl)-1H-indole dihydrochloride] | 47 | 
2 | N=C(N)NC(=O)c1cn(-c2ccnc3ccccc23)c2ccc(Cl)cc12 [Example 14, 5-Chloro-3-guanidinocarbonyl-1-(quinolin-4-yl)-1H-indole] | 2460 | 
3 | N=C(N)NC(=O)c1cn(-c2cccc3cccnc23)c2ccccc12 [Example 9, 3-Guanidinocarbonyl-1-(quinol-8-yl)-1H-indole] | 275 | 172
4 | COc1ccc2c(c1)c(C(=O)N=C(N)N)c(C)n2-c1cnnc2ccccc12 [Example 16, N-[1-(Cinnolin-4-yl)-5-methoxy-2-meth-yl-1H-indole-3-carbonyl]-guani-dine trifluoroacetate] | 1670 | 
5 | Cc1ccc2c(c1)c(C(=O)N=C(N)N)cn2-c1ccnc2ccccc12.Cl [Example 6, 3-Guanidinocarbonyl-5-methyl-1-(quinol-4-yl)-1H-indole hydrochloride] | 206 | 268
6 | N=C(N)NC(=O)c1cn(-c2ccnc3ccccc23)c2ccc(F)cc12 [Example 13, 5-Fluoro-3-guanidinocarbonyl-1-(quinol-4-yl)-1H-indole hydrochloride] | 39 | 
7 | Cc1ccc2c(c1)c(C(=O)N=C(N)N)cn2-c1ccc2ccccc2n1.Cl [Example 5, 3-Guanidinocarbonyl-5-methyl-1-(quinol-2-yl)-1H-indole hydrochloride] | 4980 | 268
8 | N=C(N)NC(=O)c1cn(-c2cc3ccccc3cn2)c2ccccc12 [Example 10, 3-Guanidinocarbonyl-1-(isoquinol-3-yl)-1H-indole hydrochloride] | 1870 | 
9 | N=C(N)NC(=O)c1cn(-c2ccnc3ccccc23)c2cc(F)ccc12 [Example 12, 6-Fluoro-3-guanidinocarbonyl-1-(quinol-4-yl)-1H-indole hydrochloride] | 76 | 

Now from value to molecule:

Row | IC50 (NHE1) [nM] | melting point [°C] | Structure (SMILES)
10 | 4 | 270 | Cl.NC(N)=NC(=O)c1cn(-c2ccnc3ccccc23)c2ccccc12 [Example 2, 3-Guanidinocarbonyl-1-(quinol-4-yl)-1H-indole hydrochloride]
11 | 200 | 268 | Cc1ccc2c(c1)c(C(=O)N=C(N)N)cn2-c1nccc2ccccc12.Cl [Example 4, 3-Guanidinocarbonyl-1-(isoquinol-1-yl)-5-methyl-1H-indole hydrochloride]
12 | 433 | 268 | Cl.NC(N)=NC(=O)c1cn(-c2cnc3ccccc3c2)c2ccccc12 [Example 7, 3-Guanidinocarbonyl-1-(quinol-3-yl)-1H-indole hydrochloride]
13 | 14 | 262 | Cl.NC(N)=NC(=O)c1cn(-c2nccc3ccccc23)c2ccccc12 [Example 1, 3-Guanidinocarbonyl-1-(isoquinol-1-yl)-1H-indole hydrochloride]
14 | 143 | 268 | Cl.NC(N)=NC(=O)c1cn(-c2ccc3ncccc3c2)c2ccccc12 [Example 8, 3-Guanidinocarbonyl-1-(quinol-6-yl)-1H-indole hydrochloride]
15 | 1.5 |  | NC(N)=NC(=O)c1cn(-c2cnnc3ccccc23)c2ccccc12 [Example 15, N-[1-(Cinnolin-4-yl)-1H-indole-3-carbonyl]-guanidine trifluoroacetate]
16 | 535 |  | NC(N)=NC(=O)c1cn(-c2ccc3ccccc3n2)c2ccccc12 [Example 3, 3-Guanidinocarbonyl-1-(quinol-2-yl)-1H-indole hydrochloride]
